Measured values from patent publication US9840583B2, “Fluorescent polymers and applications thereof” (Board of Regents, The University of Texas System, priority 2013, dated 2017).

Test: Photostability under continuous UV excitation
Type: physicochemical
Conditions: continuous UV excitation for 3 h
Description: The photostability of ABPLP micelles was also investigated and compared to the organic fluorescent dye rhodamine-B. The fluorescence intensity of the ABPLP micelle solution decreased by only 1 percent of the initial intensity after continuous UV excitation for 3 h, indicating excellent photostability. In contrast, rhodamine-B lost almost 10 percent of initial fluorescence intensity within the same experimental period.

CCN(CC)c1ccc2c(-c3ccccc3C(=O)O)c3ccc(=[N+](CC)CC)cc-3oc2c1.[Cl-] [rhodamine-B]
Loss of initial fluorescence intensity: ~10%
